Laboratory results taken from PubChem BioAssay AID330 (DTP/NCI, 2004).
Where “and” joins values, the source holds several entries; their conditions need not be identical. Equal entries are not always repeated. Inconclusive results and toxic doses are left out. Peptide text beside a SMILES is read from it. * marks the point of attachment. Boc = CC(C)(C)OC(=O)*

System: P388 leukemia ip, CD2F1 mice, survival T/C
Experiment: NCI In Vivo Anticancer Drug Screen. Data for tumor model P388 Leukemia (intraperitoneal) in CD2F1 (CDF1) mice
Conditions: endpoint: median survival time, higher = longer survival
Procedure, shortened: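 Mice carrying the transplanted tumor received test compound or vehicle. Survival was recorded in each group, and the value is the treated-group measurement divided by that of the vehicle-treated control group.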

[1] = dose: 400.0 mg/kg/injection, schedule: Q04DX003 (ip), vehicle: saline with Tween-80
[2] = dose: 60.0 mg/kg/injection, schedule: Q01DX005 (ip), vehicle: saline with Tween-80
[3] = dose: 120.0 mg/kg/injection, schedule: Q01DX005 (ip), vehicle: saline with Tween-80
[4] = dose: 240.0 mg/kg/injection, schedule: Q01DX005 (ip), vehicle: saline with Tween-80
[5] = dose: 50.0 mg/kg/injection, schedule: Q01DX005 (ip), vehicle: Klucel (hydroxypropylcellulose) (HPC)
[6] = dose: 100.0 mg/kg/injection, schedule: Q01DX005 (ip), vehicle: Klucel (hydroxypropylcellulose) (HPC)
[7] = dose: 200.0 mg/kg/injection, schedule: Q01DX005 (ip), vehicle: Klucel (hydroxypropylcellulose) (HPC)
[8] = dose: 50.0 mg/kg/injection, schedule: Q01DX009 (ip), vehicle: saline
[9] = dose: 100.0 mg/kg/injection, schedule: Q01DX009 (ip), vehicle: saline
[10] = dose: 200.0 mg/kg/injection, schedule: Q01DX009 (ip), vehicle: saline
[11] = dose: 100.0 mg/kg/injection, schedule: Q04DX003 (ip), vehicle: Klucel (hydroxypropylcellulose) (HPC)
[12] = dose: 200.0 mg/kg/injection, schedule: Q04DX003 (ip), vehicle: Klucel (hydroxypropylcellulose) (HPC)
[13] = dose: 400.0 mg/kg/injection, schedule: Q04DX003 (ip), vehicle: Klucel (hydroxypropylcellulose) (HPC)
[14] = dose: 50.0 mg/kg/injection, schedule: Q01DX009 (ip), vehicle: saline with Tween-80
[15] = dose: 100.0 mg/kg/injection, schedule: Q01DX001 (ip), vehicle: saline with Tween-80

Compound: CN(C)CCC(C#N)(CCC1CCCCC1)c1ccccc1 (stereo not given)
- T/C (dose: 10.0 mg/kg/injection, schedule: Q01DX009 (ip), vehicle: saline): 103 % of control
- T/C (dose: 20.0 mg/kg/injection, schedule: Q01DX009 (ip), vehicle: saline): 104 % of control
- T/C (dose: 40.0 mg/kg/injection, schedule: Q01DX009 (ip), vehicle: saline): 103 % of control

Compound: COc1cc(/C=N\NC(=O)c2cccc(Cl)c2)ccc1N(CCCl)CCCl
- T/C (dose: 200.0 mg/kg/injection, schedule: Q04DX003 (ip), vehicle: saline with Tween-80): 163 % of control
- T/C (dose: 264.0 mg/kg/injection, schedule: Q04DX003 (ip), vehicle: saline with Tween-80): 154 % of control
- T/C [1]: 172 % of control and 195 % of control
- T/C (dose: 600.0 mg/kg/injection, schedule: Q04DX003 (ip), vehicle: saline with Tween-80): 154 % of control

Compound: O=C(/N=C1\N=Nc2c(O)c(C3(c4nc5n(c4O)/C(=N/C(=O)Nc4ccc(Cl)cc4)N=N5)Cc4ccccc4C3=O)nn21)Nc1ccc(Cl)cc1 (stereo not given)
- T/C [2]: 101 % of control
- T/C [3]: 94 % of control
- T/C [4]: 94 % of control

Compound: Cc1nc2nc(O)c(Cc3ccccc3)c(=O)n2nc1C
- T/C [5]: 95 % of control
- T/C [6]: 93 % of control
- T/C [7]: 95 % of control

Compound: O=C1C=CC(=O)N1c1ccc2c(c1)oc(=O)c1ccccc12
- T/C (dose: 12.5 mg/kg/injection, schedule: Q01DX009 (ip), vehicle: saline): 95 % of control
- T/C (dose: 25.0 mg/kg/injection, schedule: Q01DX009 (ip), vehicle: saline): 92 % of control
- T/C [8]: 90 % of control
- T/C [9]: 100 % of control
- T/C [10]: 99 % of control
- T/C (dose: 400.0 mg/kg/injection, schedule: Q01DX009 (ip), vehicle: saline): 110 % of control

Compound: O=C(SC(O)c1ccc([N+](=O)[O-])cc1)c1ccccc1 (stereo not given)
- T/C [11]: 101 % of control
- T/C [12]: 106 % of control
- T/C [13]: 101 % of control

Compound: Clc1ccc(N=c2ccn3ccccc3c2)cc1Cl
- T/C (dose: 12.5 mg/kg/injection, schedule: Q01DX009 (ip), vehicle: saline with Tween-80): 94 % of control
- T/C (dose: 25.0 mg/kg/injection, schedule: Q01DX009 (ip), vehicle: saline with Tween-80): 94 % of control
- T/C [14]: 97 % of control

Compound: CCCCS(=O)(=O)C(C)(Cl)C(=O)OCC (stereo not given)
- T/C (dose: 25.0 mg/kg/injection, schedule: Q01DX001 (ip), vehicle: saline with Tween-80): 100 % of control
- T/C (dose: 50.0 mg/kg/injection, schedule: Q01DX001 (ip), vehicle: saline with Tween-80): 100 % of control
- T/C [15]: 106 % of control and 93 % of control

Compound: Nc1cc(=O)nc2cn[nH]n12
- T/C [8]: 92 % of control
- T/C [9]: 101 % of control
- T/C [10]: 90 % of control

Compound: O=C(c1ccccc1)C1C(=O)c2cc3c(cc2C1=O)C(=O)C(C(=O)c1ccccc1)C3=O
- T/C (dose: 25.0 mg/kg/injection, schedule: Q04DX002 (ip), vehicle: saline with Tween-80): 99 % of control
- T/C (dose: 50.0 mg/kg/injection, schedule: Q04DX002 (ip), vehicle: saline with Tween-80): 95 % of control
- T/C (dose: 100.0 mg/kg/injection, schedule: Q04DX002 (ip), vehicle: saline with Tween-80): 95 % of control

Compound: O=C1OCCCCOC(=O)c2ccccc2SSc2ccccc21
- T/C [15]: 90 % of control
- T/C (dose: 200.0 mg/kg/injection, schedule: Q01DX001 (ip), vehicle: saline with Tween-80): 99 % of control
- T/C (dose: 400.0 mg/kg/injection, schedule: Q01DX001 (ip), vehicle: saline with Tween-80): 99 % of control

Compound: CCNc1cc(N)[n+](CC)c2n[nH]c(N)c12
- T/C (dose: 50.0 mg/kg/injection, schedule: Q01DX005 (ip), vehicle: saline): 112 % of control
- T/C (dose: 100.0 mg/kg/injection, schedule: Q01DX005 (ip), vehicle: saline): 111 % of control

Compound: COC(=O)C1(CC(=O)c2ccc(N3CCN(c4ccc(C(=O)CC5(C(=O)OC)NC(=S)NC(=O)C5C#N)cc4)CC3)cc2)NC(=S)NC(=O)C1C#N (stereo not given)
- T/C (dose: 7.5 mg/kg/injection, schedule: Q01DX005 (ip), vehicle: Klucel (hydroxypropylcellulose) (HPC)): 96 % of control
- T/C (dose: 15.0 mg/kg/injection, schedule: Q01DX005 (ip), vehicle: Klucel (hydroxypropylcellulose) (HPC)): 99 % of control
- T/C (dose: 30.0 mg/kg/injection, schedule: Q01DX005 (ip), vehicle: Klucel (hydroxypropylcellulose) (HPC)): 98 % of control and 92 % of control

Compound: O=C(Nc1ccccc1C(=O)NCC1CC1)c1cccs1
- T/C [2]: 106 % of control
- T/C [3]: 100 % of control
- T/C [4]: 99 % of control

Compound: O=[N+]([O-])c1ccccc1N=Nc1c(-c2ccccc2)nn(C(=S)S)c1-c1ccccc1
- T/C (dose: 25.0 mg/kg/injection, schedule: Q04DX002 (ip), vehicle: Klucel (hydroxypropylcellulose) (HPC)): 99 % of control
- T/C (dose: 50.0 mg/kg/injection, schedule: Q04DX002 (ip), vehicle: Klucel (hydroxypropylcellulose) (HPC)): 101 % of control
- T/C (dose: 100.0 mg/kg/injection, schedule: Q04DX002 (ip), vehicle: Klucel (hydroxypropylcellulose) (HPC)): 105 % of control
- T/C (dose: 200.0 mg/kg/injection, schedule: Q04DX002 (ip), vehicle: Klucel (hydroxypropylcellulose) (HPC)): 112 % of control

Compound: O=C(Nc1nncs1)C(F)(F)F
- T/C (dose: 12.5 mg/kg/injection, schedule: Q01DX009 (ip), vehicle: distilled water + Tween-80): 111 % of control
- T/C (dose: 12.5 mg/kg/injection, schedule: Q01DX009 (ip), vehicle: water): 109 % of control
- T/C (dose: 25.0 mg/kg/injection, schedule: Q01DX009 (ip), vehicle: distilled water + Tween-80): 118 % of control
- T/C (dose: 50.0 mg/kg/injection, schedule: Q01DX009 (ip), vehicle: distilled water + Tween-80): 163 % of control
- T/C (dose: 50.0 mg/kg/injection, schedule: Q01DX009 (ip), vehicle: water): 159 % of control

Compound: COc1ccc2c(c1)CCC1C2CCC2(C)C1CCC2(O)CCOS(=O)(=O)c1ccc(C)cc1 (stereo not given)
- T/C (dose: 50.0 mg/kg/injection, schedule: Q01DX009 (ip), vehicle: Klucel (hydroxypropylcellulose) (HPC)): 97 % of control
- T/C [14]: 100 % of control
- T/C (dose: 100.0 mg/kg/injection, schedule: Q01DX009 (ip), vehicle: Klucel (hydroxypropylcellulose) (HPC)): 97 % of control
- T/C (dose: 100.0 mg/kg/injection, schedule: Q01DX009 (ip), vehicle: saline with Tween-80): 99 % of control
- T/C (dose: 200.0 mg/kg/injection, schedule: Q01DX009 (ip), vehicle: Klucel (hydroxypropylcellulose) (HPC)): 94 % of control
- T/C (dose: 200.0 mg/kg/injection, schedule: Q01DX009 (ip), vehicle: saline with Tween-80): 104 % of control

Compound: Clc1cc(Cl)c(CBr)cc1CBr
- T/C (dose: 3.0 mg/kg/injection, schedule: Q04DX003 (ip), vehicle: saline with Tween-80): 104 % of control
- T/C (dose: 6.0 mg/kg/injection, schedule: Q04DX003 (ip), vehicle: saline with Tween-80): 104 % of control
- T/C (dose: 12.0 mg/kg/injection, schedule: Q04DX003 (ip), vehicle: saline with Tween-80): 100 % of control

Compound: S=c1[nH]nc(-c2cnns2)o1
- T/C (dose: 50.0 mg/kg/injection, schedule: Q04DX003 (ip), vehicle: Klucel (hydroxypropylcellulose) (HPC)): 103 % of control
- T/C [11]: 98 % of control
- T/C [12]: 107 % of control

Compound: COc1cccc(/C=N/C(/N=C/c2cccc(OC)c2O)c2cccc(OC)c2O)c1O
- T/C [2]: 97 % of control
- T/C [3]: 97 % of control
- T/C [4]: 102 % of control

Compound: CSCCC(NC(=O)OC(C)(C)C)C(=O)NC(Cc1ccccc1)C(=O)O (stereo not drawn) (Boc-Met-Phe-OH; configuration not given here)
- T/C [5]: 100 % of control
- T/C [6]: 100 % of control
- T/C [7]: 106 % of control

Compound: Cc1ccc(-n2nc(C)c3c(N)nc(N)nc32)c(Cl)c1
- T/C [11]: 101 % of control
- T/C [12]: 101 % of control
- T/C [13]: 103 % of control

Compound: NC(=O)c1ccccc1NCCc1ccccc1
- T/C (dose: 25.0 mg/kg/injection, schedule: Q04DX003 (ip), vehicle: saline with Tween-80): 91 % of control
- T/C (dose: 50.0 mg/kg/injection, schedule: Q04DX003 (ip), vehicle: saline with Tween-80): 100 % of control
- T/C (dose: 100.0 mg/kg/injection, schedule: Q04DX003 (ip), vehicle: saline with Tween-80): 104 % of control and 97 % of control
- T/C [1]: 97 % of control

Compound: COc1ccc(C2C3CCCC(C(c4ccc(OC)cc4)N2C)C32NC(=O)NC2=O)cc1 (stereo not given)
- T/C [2]: 90 % of control
- T/C [3]: 90 % of control
- T/C [4]: 91 % of control

Compound: Cc1[nH]n(-c2ccccc2)c(=O)c1N=Nc1cccc(C(F)(F)F)c1
- T/C (dose: 100.0 mg/kg/injection, schedule: Q04DX002 (ip), vehicle: saline): 92 % of control
- T/C (dose: 200.0 mg/kg/injection, schedule: Q04DX002 (ip), vehicle: saline): 99 % of control
- T/C (dose: 400.0 mg/kg/injection, schedule: Q04DX002 (ip), vehicle: saline): 100 % of control
